According to patent US8263606B2 (Xenon Pharmaceuticals Inc., priority 2008, dated 2012):

Legend:
CYP3A4 = CYP3A4 (Homo sapiens, UniProt P08684); test: Cytochrome P450 (CYP450) Inhibition Assay, CYP3A4 (Vivid fluorescence, BOMCC substrate); settings: human, P450 Baculosomes (recombinant CYP3A4), probe BOMCC (Vivid substrate)
sodium channel = test: Guanidine influx assay (14C-guanidine radiotracer flux, in vitro); format: cell-based, human or rat; settings: guanidine influx assay using a known cell line that expresses a sodium channel
Procedure, shortened: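 IC50 derives from a four-parameter logistic fit of 14C-guanidine uptake, test agent serially half-diluted around a 1 μM midpoint. Flux was driven by aconitine in low-sodium HEPES/choline saline at ambient temperature, using endogenous or recombinant human or rat sodium-channel cell lines plated ~100,000/well for 20–24 h.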

Sequence of CYP3A4 (P08684 whole entry): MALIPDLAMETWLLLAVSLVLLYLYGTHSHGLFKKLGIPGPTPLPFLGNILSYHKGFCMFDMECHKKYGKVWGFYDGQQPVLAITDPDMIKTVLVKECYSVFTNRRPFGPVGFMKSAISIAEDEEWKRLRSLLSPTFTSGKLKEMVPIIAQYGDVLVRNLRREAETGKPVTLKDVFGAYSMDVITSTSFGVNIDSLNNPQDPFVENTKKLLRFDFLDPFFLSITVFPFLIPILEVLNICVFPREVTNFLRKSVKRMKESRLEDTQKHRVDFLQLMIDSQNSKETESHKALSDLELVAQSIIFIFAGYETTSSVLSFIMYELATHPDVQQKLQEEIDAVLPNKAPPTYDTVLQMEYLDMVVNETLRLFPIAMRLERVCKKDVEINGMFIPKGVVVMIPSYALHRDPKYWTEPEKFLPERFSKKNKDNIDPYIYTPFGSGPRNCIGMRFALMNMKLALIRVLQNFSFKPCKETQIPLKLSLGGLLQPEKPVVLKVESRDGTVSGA

Compound	inhibition at 10 µM (CYP3A4) [%]	IC50 (sodium channel) [nM]	melting point [°C]
O=C1N(Cc2cccc(-c3noc(C(F)(F)F)n3)c2)c2ccccc2C12COc1cc3c(cc12)CCO3 (stereo not drawn) [Example 11.28, 1′-{3-[5-(trifluoromethyl)-1,2,4-oxadiazol-3-yl]benzyl}-5,6-dihydrospiro[benzo[1,2-b:5,4-b′]difuran-3,3′-indol]-2′(1′H)-one]	> 50	100 to 1000	182 to 188
Cc1nnc(-c2ccc(CN3C(=O)C4(COc5cc6c(cc54)CCO6)c4ccccc43)cc2)[nH]1 (stereo not drawn) [Example 11.29, 1′-[4(5-methyl-4H-1,2,4-triazol-3-yl)benzyl]-5,6-dihydrospiro[benzo[1,2-b:5,4-b′]difuran-3,3′-indol]-2′(1′H)-one]	> 50	100 to 1000	169 to 180
Nc1cccc2c1C1(COc3cc4c(cc31)CCO4)C(=O)N2C[C@H]1CCCO1 (stereo partly drawn) [Example 11.39, 4′-amino-1′-[(2R)-tetrahydrofuran-2-ylmethyl]-5,6-dihydrospiro[benzo[1,2-b:5,4-b′]difuran-3,3′-indol]-2′(1′H)-one]	> 50	100 to 1000	190 to 192
CN1C(=O)C2(COc3cc4c(cc32)CCO4)c2ccccc21 (stereo not drawn) [Example 11.43, 1′-methyl-5,6-dihydrospiro[benzo[1,2-b:5,4-b′]difuran-3,3′-indol]-2′(1′H)-one]	< 50	100 to 1000	187 to 190
Nc1ccc2c(c1)OCC21C(=O)N(C[C@H]2CCCO2)c2ccccc21 (stereo partly drawn) [Example 11.47, 6-amino-1′-[(2R)-tetrahydrofuran-2-ylmethyl]spiro[1-benzofuran-3,3′-indol]-2′(1′H)-one]	> 50	1000 to 10000	71 to 74
CC(C)CCN1C(=O)C2(COc3cc(O)ccc32)c2ccccc21 (stereo not drawn) [Example 11.49, 6-hydroxy-1′-(3-methylbutyl)spiro[1-benzofuran-3,3′-indol]-2′(1′H)-one]	> 50	1 to 100	101 to 103
CC(C)CCN1C(=O)C2(COc3cc(O)c(C(=O)C(F)(F)F)cc32)c2ccccc21 (stereo not drawn) [Example 11.50, 6-hydroxy-1′-(3-methylbutyl)-5-(trifluoroacetyl)spiro[1-benzofuran-3,3′-indol]-2′(1′H)-one]	> 50	1000 to 10000	87 to 88
O=C1N(Cc2ccc(C(F)(F)F)o2)c2ccccc2C12COc1cc(N[C@@H]3CCNC3)ccc12 (stereo partly drawn) [Example 11.52, 6-[(3R)-pyrrolidin-3-ylamino]-1′-{[5-(trifluoromethyl)furan-2-yl]methyl}spiro[1-benzofuran-3,3′-indol]-2′(1′H)-one]	> 50	100 to 1000	122 to 125
O=C1N(C[C@H]2CCCO2)c2ccccc2C12COc1cc(O)ccc12 (stereo partly drawn) [Example 11.53, 6-hydroxy-1′-[(2R)-tetrahydrofuran-2-ylmethyl]spiro[1-benzofuran-3,3′-indol]-2′(1′H)-one]	< 50	100 to 1000	72 to 74
Cl.O=C1N(C[C@H]2CCCO2)c2ccccc2C12COc1cc(O[C@H]3CCNC3)ccc12 (stereo partly drawn) [Example 11.56, 6-[(3S)-pyrrolidin-3-yloxy]-1′-[(2R)-tetrahydrofuran-2-ylmethyl]spiro[1-benzofuran-3,3′-indol]-2′(1′H)-one hydrochloride]	< 50	1000 to 10000	119 to 121
Cl.O=C1N(C[C@H]2CCCO2)c2ccccc2C12COc1cc(O[C@@H]3CCNC3)ccc12 (stereo partly drawn) [Example 11.58, 6-[(3R)-pyrrolidin-3-yloxy]-1′-[(2R)-tetrahydrofuran-2-ylmethyl]spiro[1-benzofuran-3,3′-indol]-2′(1′H)-one hydrochloride]	< 50	1000 to 10000	120 to 130
CN1C(=O)CC[C@H]1CN1C(=O)C2(COc3cc4c(cc32)CCO4)c2ccccc21 (stereo partly drawn) [Example 11.70, 1′-{[(2S)-1-methyl-5-oxopyrrolidin-2-yl]methyl}-5,6-dihydrospiro[benzo[1,2-b:5,4-b′]difuran-3,3′-indol]-2′(1′H)-one]	> 50	1000 to 10000	72 to 76

Next, values leading:

inhibition at 10 µM (CYP3A4) [%]	IC50 (sodium channel) [nM]	melting point [°C]	Compound
> 50	1 to 100	45 to 48	O=C1N(CCc2noc(C(F)(F)F)n2)c2ccccc2C12COc1cc3c(cc12)OCO3 (stereo not drawn) [Example 11.18, 1′-{2-[5-(trifluoromethyl)-1,2,4-oxadiazol-3-yl]ethyl}spiro[furo[2,3-f][1,3]benzodioxole-7,3′-indol]-2′(1′H)-one]
> 50	1 to 100	138 to 140	O=C1N(Cc2noc(C(F)(F)F)n2)c2cccc(Cl)c2C12COc1cc3c(cc12)OCO3 (stereo not drawn) [Example 11.19, 4′-chloro-1′-{[5-(trifluoromethyl)-1,2,4-oxadiazol-3-yl]methyl}spiro[furo[2,3-f][1,3]benzodioxole-7,3′-indol]-2′(1′H)-one]
> 50	1 to 100	180 to 182	O=C1N(Cc2noc(C3CC3)n2)c2cccc(Cl)c2C12COc1cc3c(cc12)OCO3 (stereo not drawn) [Example 11.20, 4′-chloro-1′-[(5-cyclopropyl-1,2,4-oxadiazol-3-yl)methyl]spiro[furo[2,3-f][1,3]benzodioxole-7,3′-indol]-2′(1′H)-one]
> 50	1 to 100	179 to 182	O=C1N(Cc2noc(C(F)F)n2)c2cccc(Cl)c2C12COc1cc3c(cc12)OCO3 (stereo not drawn) [Example 11.21]
> 50	1 to 100	137 to 139	O=C1N(Cc2noc(C(F)F)n2)c2ccccc2C12COc1cc3c(cc12)OCO3 (stereo not drawn) [Example 11.22, 1-{[5-(difluoromethyl)-1,2,4-oxadiazol-3-yl]methyl}spiro[furo[2,3-f][1,3]benzodioxole-7,3′-indol]-2′(1′H)-one]
> 50	1 to 100	183 to 185	CC(C)(C)c1nc(CN2C(=O)C3(COc4cc5c(cc43)OCO5)c3ccccc32)no1 (stereo not drawn) [Example 11.23, 1′-[(5-tert-butyl-1,2,4-oxadiazol-3-yl)methyl]spiro[furo[2,3-f][1,3]benzodioxole-7,3′-indol]-2′(1′H)-one]
> 50	1 to 100	136 to 137	O=C1N(Cc2noc(C3CC3)n2)c2ccccc2C12COc1cc3c(cc12)OCO3 (stereo not drawn) [Example 11.24, 1′-[(5-cyclopropyl-1,2,4-oxadiazol-3-yl)methyl]spiro[furo[2,3-f][1,3]benzodioxole-7,3′-indol]-2′(1′H)-one]
> 50	1 to 100	165 to 167	CC(C)c1nc(CN2C(=O)C3(COc4cc5c(cc43)OCO5)c3c(Cl)cccc32)no1 (stereo not drawn) [Example 11.25, 4′-chloro-1′-{[5-(1-methylethyl)-1,2,4-oxadiazol-3-yl]methyl}spiro[furo[2,3-f][1,3]benzodioxole-7,3′-indol]-2′(1′H)-one]
> 50	1 to 100	196 to 199	CC(C)c1nc(CN2C(=O)C3(COc4cc5c(cc43)OCO5)c3ccccc32)no1 (stereo not drawn) [Example 11.26, 1′-{[5-(1-methylethyl)-1,2,4-oxadiazol-3-yl]methyl}spiro[furo[2,3-f][1,3]benzodioxole-7,3′-indol]-2′(1′H)-one]
< 50	100 to 1000	54 to 56	O=C1N(CCCO)c2ccccc2C12COc1cc3c(cc12)CCO3 (stereo not drawn) [Example 11.34, 1′-(3-hydroxypropyl)-5,6-dihydrospiro[benzo[1,2-b:5,4-b′]difuran-3,3′-indol]-2′(1′H)-one]
> 50	100 to 1000	225 to 227	O=C1N(Cc2cccc(O)c2)c2ccccc2C12COc1cc3c(cc12)CCO3 (stereo not drawn) [Example 11.45, 1′-(3-hydroxybenzyl)-5,6-dihydrospiro[benzo[1,2-b:5,4-b′]difuran-3,3′-indol]-2′(1′H)-one]
< 50	100 to 1000	142 to 144	O=C1COc2cc3c(cc21)C1(CO3)C(=O)N(C[C@H]2CCCO2)c2ccccc21 (stereo partly drawn) [Example 11.60, 1′-[(2R)-tetrahydrofuran-2-ylmethyl]spiro[benzo[1,2-b:5,4-b′]difuran-3,3′-indole]-2′,5(1′H,6H)-dione]
> 50	1 to 100	139 to 140	O=C1N(Cc2noc(C(F)(F)F)n2)c2ccccc2C12COc1cc3c(cc12)OCO3 (stereo not drawn) [Example 11.72, 1-{[5-(trifluoromethyl)-1,2,4-oxadiazol-3-yl]methyl}spiro[furo[2,3-f][1,3]benzodioxole-7,3′-indol]-2′(1′H)-one]
> 50	100 to 1000	206 to 208	CC(C)NC(=O)N1CCCC(CCN2C(=O)C3(COc4cc5c(cc43)OCO5)c3ccccc32)C1 (stereo not drawn) [Example 11.73, N-isopropyl-3-[2-(2′-oxospiro[furo[2,3-f][1,3]benzodioxole-7,3′-indol]-1′(2′H)-yl)ethyl]piperidine-1-carboxamide]
> 50	1 to 100	207 to 209	N#Cc1csc(CN2C(=O)C3(COc4cc5c(cc43)OCO5)c3ccccc32)c1 (stereo not drawn) [Example 11.74, 5-[(2′-oxospiro[furo[2,3-][1,3′]benzodioxole-7,3′-indol]-1′(2′H)-yl)methyl]thiophene-3-carbonitrile]
> 50	100 to 1000	205 to 207	N#Cc1cccc2c1NC(=O)C21COc2cc3c(cc21)OCO3 (stereo not drawn) [Example 11.75, 2′-oxo-1′,2′-dihydrospiro[furo[2,3-f][1,3]benzodioxole-7,3′-indole]-7′-carbonitrile]
